# Results reported in patent US20100311714A1, “1H-IMIDAZO[4,5-c]QUINOLINONE COMPOUNDS” (priority 2009, published 2010).
# pIC50: −log10 of the molar value. Read-outs that look alike come from different tables or passages of the source.
# What was measured:
# PI3K delta = target: T1, PI3K delta (Homo sapiens, UniProt O00329); assay: PI3K delta kinase assay (Kinase-Glo luminescence); format: biochemical
# T1 construct: for the full-length p110-d subunit are generated and fused by overlapping PCR; His tag (C); made in house; host or cells: baculovirus BV1060; Tn5 (Trichoplusia ni) or TiniPro insect cells
# T1 sequence (O00329 with tags, fused parts or gaps limits assumed): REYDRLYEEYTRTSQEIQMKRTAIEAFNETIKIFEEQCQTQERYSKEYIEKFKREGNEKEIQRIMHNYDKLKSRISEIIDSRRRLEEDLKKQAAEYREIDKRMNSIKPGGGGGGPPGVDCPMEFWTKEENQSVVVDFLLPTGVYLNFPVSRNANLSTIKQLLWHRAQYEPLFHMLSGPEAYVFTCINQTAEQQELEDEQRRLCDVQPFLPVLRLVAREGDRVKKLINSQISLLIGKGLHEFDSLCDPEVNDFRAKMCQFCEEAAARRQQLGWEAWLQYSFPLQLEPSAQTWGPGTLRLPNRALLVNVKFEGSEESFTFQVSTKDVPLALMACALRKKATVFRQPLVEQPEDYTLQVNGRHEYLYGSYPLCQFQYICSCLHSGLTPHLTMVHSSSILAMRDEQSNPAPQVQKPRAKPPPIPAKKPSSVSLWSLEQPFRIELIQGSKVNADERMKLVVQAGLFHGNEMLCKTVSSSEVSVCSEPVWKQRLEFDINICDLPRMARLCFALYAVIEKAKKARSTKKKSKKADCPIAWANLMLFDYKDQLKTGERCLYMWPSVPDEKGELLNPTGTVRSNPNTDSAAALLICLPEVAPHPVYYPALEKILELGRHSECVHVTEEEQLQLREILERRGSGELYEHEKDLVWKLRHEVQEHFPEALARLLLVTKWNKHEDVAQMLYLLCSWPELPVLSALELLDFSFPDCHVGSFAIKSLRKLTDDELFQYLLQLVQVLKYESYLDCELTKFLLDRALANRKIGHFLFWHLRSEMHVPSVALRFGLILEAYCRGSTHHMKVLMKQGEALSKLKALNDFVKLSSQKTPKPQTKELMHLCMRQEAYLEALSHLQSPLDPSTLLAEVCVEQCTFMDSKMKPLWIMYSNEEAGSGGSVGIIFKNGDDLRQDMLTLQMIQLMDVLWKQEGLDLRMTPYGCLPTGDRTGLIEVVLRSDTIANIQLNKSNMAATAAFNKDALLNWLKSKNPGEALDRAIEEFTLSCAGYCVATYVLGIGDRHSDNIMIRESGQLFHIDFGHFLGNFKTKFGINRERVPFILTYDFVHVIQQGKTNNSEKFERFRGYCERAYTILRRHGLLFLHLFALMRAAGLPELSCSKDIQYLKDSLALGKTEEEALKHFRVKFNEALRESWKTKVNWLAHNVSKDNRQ
# Summary of the method: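 Kinase-Glo ATP-depletion luminescence using 10 nM p85(iSH2)-linker-p110δ full-length His-tag construct from insect cells, with 1 μM ATP and 10 μg/mL phosphatidylinositol in 10 mM Tris pH 7.5, 3 mM MgCl2, 50 mM NaCl, 0.05% CHAPS, 1 mM DTT. 60 min room temperature; IC50 from 4-parameter logistic fit over 8 concentrations.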
# [1] = High-throughput equilibrium solubility at pH 6.8; format: physicochemical; settings: pH 6.8, aqueous buffer, thermodynamic from solid; read-out: HT-Eq Sol/pH 6.8
# Summary of the method: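 Solubility was measured at pH 6.8 following the cited Zhou et al. (2007) procedure.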
pIC50 (PI3K delta; read-out: EPK_PI3Kdelta/IC50),solubility thermodynamic [1] [µg/mL],pIC50 (PI3K delta; read-out: PI3Kdelta/IC50),Structure (SMILES)
6.40,5,,"CCOc1ccc(-c2ccc3ncc4c(c3c2)n(-c2ccc(N(C)C)nc2C)c(=O)n4C)cn1 [Example 19.3, 1-(6-Dimethylamino-2-methyl-pyridin-3-yl)-8-(6-ethoxy-pyridin-3-yl)-3-methyl-1,3-dihydro-imidazo[4,5-c]quinolin-2-one]"
7.17,10,,"Cc1nc(N(C)C)ccc1-n1c(=O)n(C)c2cnc3ccc(-c4cncc(N)c4)cc3c21 [Example 19.5, 8-(5-Amino-pyridin-3-yl)-1-(6-dimethylamino-2-methyl-pyridin-3-yl)-3-methyl-1,3-dihydro-imidazo[4,5-c]quinolin-2-one]"
8.05,140,,"CCNc1cc(-c2ccc3ncc4c(c3c2)n(-c2ccc(N(C)CCOC)nc2C)c(=O)n4C)cnc1C [Example 15.6, 8-(5-Ethylamino-6-methyl-pyridin-3-yl)-1-{6-[(2-methoxy-ethyl)-methyl-amino]-2-methyl-pyridin-3-yl}-3-methyl-1,3-dihydro-imidazo[4,5-c]quinolin-2-one]"
7.66,10,,"CCNc1cc(-c2ccc3ncc4c(c3c2)n(-c2ccc(OC)nc2Cl)c(=O)n4C)cnc1C [Example 18.1, 1-(2-Chloro-6-methoxy-pyridin-3-yl)-8-(5-ethylamino-6-methyl-pyridin-3-yl)-3-methyl-1,3-dihydro-imidazo[4,5-c]quinolin-2-one]"
7.57,70,,"CCNc1cc(-c2ccc3ncc4c(c3c2)n(-c2cnc(F)cc2C)c(=O)n4C)cnc1C [Example 16.2, 8-(5-Ethylamino-6-methyl-pyridin-3-yl)-1-(6-fluoro-4-methyl-pyridin-3-yl)-3-methyl-1,3-dihydro-imidazo[4,5-c]quinolin-2-one]"
7.92,7,,"CNc1ncc(-c2ccc3ncc4c(c3c2)n(-c2ccc(N(C)C)nc2C)c(=O)n4C)cn1 [Example 19.1, 1-(6-Dimethylamino-2-methyl-pyridin-3-yl)-3-methyl-8-(2-methylamino-pyrimidin-5-yl)-1,3-dihydro-imidazo[4,5-c]quinolin-2-one]"
7.68,4,,"COCCN(C)c1ccc(-n2c(=O)n(C)c3cnc4ccc(-c5cnc6c(ccn6C)c5)cc4c32)c(C)n1 [Example 15.7, 1-{6-[(2-Methoxy-ethyl)-methyl-amino]-2-methyl-pyridin-3-yl}-3-methyl-8-(1-methyl-1H-pyrrolo[2,3-b]pyridin-5-yl)-1,3-dihydro-imidazo[4,5-c]quinolin-2-one]"
7.57,3,,"Cc1cc(F)ncc1-n1c(=O)n(C)c2cnc3ccc(-c4cnc(N)c(C(F)(F)F)c4)cc3c21 [Example 16.1, 8-(6-Amino-5-trifluoromethyl-pyridin-3-yl)-1-(6-fluoro-4-methyl-pyridin-3-yl)-3-methyl-1,3-dihydro-imidazo[4,5-c]quinolin-2-one]"
6.95,27,,"CNc1ncc(-c2ccc3ncc4c(c3c2)n(-c2cnc(F)cc2C)c(=O)n4C)cn1 [Example 16.3, 1-(6-Fluoro-4-methyl-pyridin-3-yl)-3-methyl-8-(2-methylamino-pyrimidin-5-yl)-1,3-dihydro-imidazo[4,5-c]quinolin-2-one]"
8.40,37,,"COc1ccc(-n2c(=O)n(C)c3cnc4ccc(-c5cnc(N(C)C)nc5)cc4c32)c(Cl)n1 [Example 18.3, 1-(2-Chloro-6-methoxy-pyridin-3-yl)-8-(2-dimethylamino-pyrimidin-5-yl)-3-methyl-1,3-dihydro-imidazo[4,5-c]quinolin-2-one]"

# Continued, compound first:
Structure (SMILES),pIC50 (PI3K delta; read-out: EPK_PI3Kdelta/IC50),solubility thermodynamic [1] [µg/mL],pIC50 (PI3K delta; read-out: PI3Kdelta/IC50)
"Cc1nc(F)ccc1-n1c(=O)n(C)c2cnc3ccc(-c4cnc(N)c(CO)c4)cc3c21 [Example 7.17, 8-(6-Amino-5-hydroxymethyl-pyridin-3-yl)-1-(6-fluoro-2-methyl-pyridin-3-yl)-3-methyl-1,3-dihydro-imidazo[4,5-c]quinolin-2-one]",7.70,> 430,
"CNc1ccc(-c2ccc3ncc4c(c3c2)n(-c2ccc(OCCOC)nc2C)c(=O)n4C)cn1 [Example 13.3, 1-[6-(2-Methoxy-ethoxy)-2-methyl-pyridin-3-yl]-3-methyl-8-(6-methylamino-pyridin-3-yl)-1,3-dihydro-imidazo[4,5-c]quinolin-2-one]",7.59,10,
"CCNc1cc(-c2ccc3ncc4c(c3c2)n(-c2ccc(F)nc2C)c(=O)n4C)cnc1CO [Example 7.9, 8-(5-Ethylamino-6-hydroxymethyl-pyridin-3-yl)-1-(6-fluoro-2-methyl-pyridin-3-yl)-3-methyl-1,3-dihydro-imidazo[4,5-c]quinolin-2-one]",7.44,299,
"CCNc1cc(-c2ccc3ncc4c(c3c2)n(-c2ccc(C)nc2C)c(=O)n4C)cnc1C [Example 14.6, 1-(2,6-Dimethyl-pyridin-3-yl)-8-(5-ethylamino-6-methyl-pyridin-3-yl)-3-methyl-1,3-dihydro-imidazo[4,5-c]quinolin-2-one]",7.70,175,
"COc1ncccc1-n1c(=O)n(C)c2cnc3ccc(-c4cnc(N(C)C)nc4)cc3c21 [Example 1.9, 8-(2-Dimethylamino-pyrimidin-5-yl)-1-(2-methoxy-pyridin-3-yl)-3-methyl-1,3-dihydro-imidazo[4,5-c]quinolin-2-one]",,3,7.07
"CCNc1cc(-c2ccc3ncc4c(c3c2)n(-c2ccc(N(C)CC)nc2C)c(=O)n4C)cnc1C [Example 12.2, 8-(5-Ethylamino-6-methyl-pyridin-3-yl)-1-[6-(ethyl-methyl-amino)-2-methyl-pyridin-3-yl]-3-methyl-1,3-dihydro-imidazo[4,5-c]quinolin-2-one]",7.89,5,
"Cc1ccc(-n2c(=O)n(C)c3cnc4ccc(-c5cnc(N(C)C)nc5)cc4c32)c(C)n1 [Example 14.3, 8-(2-Dimethylamino-pyrimidin-5-yl)-1-(2,6-dimethyl-pyridin-3-yl)-3-methyl-1,3-dihydro-imidazo[4,5-c]quinolin-2-one]",7.31,7,
"COCc1ncc(-c2ccc3ncc4c(c3c2)n(-c2ccc(OC)nc2OC)c(=O)n4C)cc1OC [Example 8.12, 1-(2,6-Dimethoxy-pyridin-3-yl)-8-(5-methoxy-6-methoxymethyl-pyridin-3-yl)-3-methyl-1,3-dihydro-imidazo[4,5-c]quinolin-2-one]",7.38,13,
"Cc1nc(F)ccc1-n1c(=O)n(C)c2cnc3ccc(-c4cncc(N)c4)cc3c21 [Example 7.16, 8-(5-Amino-pyridin-3-yl)-1-(6-fluoro-2-methyl-pyridin-3-yl)-3-methyl-1,3-dihydro-imidazo[4,5-c]quinolin-2-one]",7.25,187,
"CNc1ncc(-c2ccc3ncc4c(c3c2)n(-c2ccc(C)nc2C)c(=O)n4C)cn1 [Example 14.4, 1-(2,6-Dimethyl-pyridin-3-yl)-3-methyl-8-(2-methylamino-pyrimidin-5-yl)-1,3-dihydro-imidazo[4,5-c]quinolin-2-one]",7.36,8,
"COc1ccc(-n2c(=O)n(C)c3cnc4ccc(-c5cnc(CO)c(OC)c5)cc4c32)c(C)n1 [Example 11.8, 8-(6-Hydroxymethyl-5-methoxy-pyridin-3-yl)-1-(6-methoxy-2-methyl-pyridin-3-yl)-3-methyl-1,3-dihydro-imidazo[4,5-c]quinolin-2-one]",> 8.52,26,
"CCOc1ccc(-c2ccc3ncc4c(c3c2)n(-c2cccnc2C)c(=O)n4C)cn1 [Example 2.1, 8-(6-Ethoxy-pyridin-3-yl)-3-methyl-1-(2-methyl-pyridin-3-yl)-1,3-dihydro-imidazo[4,5-c]quinolin-2-one]",,3,7.03
"COc1ncccc1-n1c(=O)n(C)c2cnc3ccc(-c4cnc5c(ccn5C)c4)cc3c21 [Example 1.7, 1-(2-Methoxy-pyridin-3-yl)-3-methyl-8-(1-methyl-1H-pyrrolo[2,3-b]pyridin-5-yl)-1,3-dihydro-imidazo[4,5-c]quinolin-2-one]",,3,7.00
"CNc1cc(-c2ccc3ncc4c(c3c2)n(-c2ccc(F)nc2C)c(=O)n4C)cnc1CO [Example 7.11, 1-(6-Fluoro-2-methyl-pyridin-3-yl)-8-(6-hydroxymethyl-5-methylamino-pyridin-3-yl)-3-methyl-1,3-dihydro-imidazo[4,5-c]quinolin-2-one]",7.59,207,
